Test results published in patent US9708314B2, “Heterocyclic amide compound” (NISSAN CHEMICAL INDUSTRIES, LTD., priority 2013, dated 2017).

Experiments:
Assay type in all cases: in vivo
[1] = tested on: Echinochloa crus-galli var. crus-galli; test: Test Example 4: herbicidal effect by application to foliage (diluvial soil, plastic box); settings: application to foliage, 320 g/ha
Method in brief: (§1)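 Read-out is a 0–5 visual grade of herbicidal ratio (5: ≥90%, almost withered; 0: ≤5%) taken three weeks after treatment. Compound was applied as a diluted emulsion to stem and leaf parts of 14-day greenhouse-grown plants (25° C. to 30° C.) at rates expressed as g/ha.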

[2] = tested on: Digitaria ciliaris; test: as above; settings: application to foliage, 320 g/ha
Method in brief: as §1

[3] = tested on: Apera spica-venti.; test: as above; settings: application to foliage, 320 g/ha
Method in brief: as §1

[4] = tested on: Lolium multiflorum Lam.; test: as above; settings: application to foliage, 320 g/ha
Method in brief: as §1

[5] = tested on: Avena fatua; test: as above; settings: application to foliage, 320 g/ha
Method in brief: as §1

[6] = tested on: Chenopodium album; test: as above; settings: application to foliage, 320 g/ha
Method in brief: as §1

[7] = tested on: Abutilon theophrasti; test: as above; settings: application to foliage, 320 g/ha
Method in brief: as §1

[8] = tested on: Galium spurium; test: as above; settings: application to foliage, 320 g/ha
Method in brief: as §1

[9] = tested on: Alopecurus myosuroides; test: as above; settings: application to foliage, 320 g/ha
Method in brief: as §1

[10] = tested on: Setaria viridis; test: as above; settings: application to foliage, 320 g/ha
Method in brief: as §1

[11] = tested on: Zea mays; test: Test Example 4: effect on crop by application to foliage (diluvial soil, plastic box); settings: application to foliage, 320 g/ha
Method in brief: as §1

[12] = tested on: Triticum aestivum; test: as above; settings: application to foliage, 320 g/ha
Method in brief: as §1

[13] = tested on: directly sowed Oryza sativa; test: as above; settings: application to foliage, 320 g/ha
Method in brief: as §1

[14] = tested on: Brassica campestris L.; test: as above; settings: application to foliage, 320 g/ha
Method in brief: as §1

[15] = tested on: Glycine max; test: as above; settings: application to foliage, 320 g/ha
Method in brief: as §1

[16] = tested on: Beta vulgaris ssp. vulgaris; test: as above; settings: application to foliage, 320 g/ha
Method in brief: as §1

[17] = tested on: Echinochloa crus-galli var. crus-galli; test: Test Example 3: herbicidal effect by application to foliage (Wagner pot, water depth 0.1-0.5 cm); settings: Nineteenth Table; application to foliage; application herbicide amount 320 g/ha
Method in brief: (§2)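 Greenhouse pot test, 25–30 °C, alluvial soil. Sown seedlings grown 14 days then sprayed on leaves and stems with emulsion diluted to target g/ha. Rating at 3 weeks, 0–5 scale (0 ≤5%, 5 ≥90%).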

[18] = tested on: Leptochloa chinensis; test: as above; settings: Nineteenth Table; application to foliage; application herbicide amount 320 g/ha
Method in brief: as §2

SMILES	herbicidal effect, H (Echinochloa crus-galli var. crus-galli) [1]	herbicidal effect, F (Digitaria ciliaris) [2]	herbicidal effect, L (Apera spica-venti.) [3]	herbicidal effect, K (Lolium multiflorum Lam.) [4]	herbicidal effect, I (Avena fatua) [5]	herbicidal effect, O (Chenopodium album) [6]	herbicidal effect, M (Abutilon theophrasti) [7]	herbicidal effect, Q (Galium spurium) [8]	herbicidal effect, J (Alopecurus myosuroides) [9]	herbicidal effect, G (Setaria viridis) [10]	effect on crop, b (Zea mays) [11]	effect on crop, e (Triticum aestivum) [12]	effect on crop, d (directly sowed Oryza sativa) [13]	effect on crop, g (Brassica campestris L.) [14]	effect on crop, c (Glycine max) [15]	effect on crop, f (Beta vulgaris ssp. vulgaris) [16]	H (herbicidal effect grade) [17]	D (herbicidal effect grade) [18]
CCSc1nnc2c(C(=O)Nc3nnnn3CCOC)ccc(C(F)(F)F)n12 [2-098]	5 (Herbicidal ratio of 90% or more (almost completely withered))	5 (Herbicidal ratio of 90% or more (almost completely withered))	4 (Herbicidal ratio of 70% or more and less than 90%)	3 (Herbicidal ratio of 40% or more and less than 70%)	4 (Herbicidal ratio of 70% or more and less than 90%)	5 (Herbicidal ratio of 90% or more (almost completely withered))	4 (Herbicidal ratio of 70% or more and less than 90%)	4 (Herbicidal ratio of 70% or more and less than 90%)	2 (Herbicidal ratio of 20% or more and less than 40%)	5 (Herbicidal ratio of 90% or more (almost completely withered))	4 (Herbicidal ratio of 70% or more and less than 90%)	3 (Herbicidal ratio of 40% or more and less than 70%)	4 (Herbicidal ratio of 70% or more and less than 90%)	4 (Herbicidal ratio of 70% or more and less than 90%)	1 (Herbicidal ratio of 5% or more and less than 20%)	5 (Herbicidal ratio of 90% or more (almost completely withered))	5 (Herbicidal ratio of 90% or more (almost completely withered))	5 (Herbicidal ratio of 90% or more (almost completely withered))
CCSc1nnc2c(C(=O)Nc3ncnn3C)ccc(C(F)(F)F)n12 [4-003]	4 (Herbicidal ratio of 70% or more and less than 90%)	2 (Herbicidal ratio of 20% or more and less than 40%)	1 (Herbicidal ratio of 5% or more and less than 20%)	0 (Herbicidal ratio of 5% or less (almost no effect))	0 (Herbicidal ratio of 5% or less (almost no effect))	5 (Herbicidal ratio of 90% or more (almost completely withered))	4 (Herbicidal ratio of 70% or more and less than 90%)	1 (Herbicidal ratio of 5% or more and less than 20%)	0 (Herbicidal ratio of 5% or less (almost no effect))	1 (Herbicidal ratio of 5% or more and less than 20%)	0 (Herbicidal ratio of 5% or less (almost no effect))	0 (Herbicidal ratio of 5% or less (almost no effect))	4 (Herbicidal ratio of 70% or more and less than 90%)	1 (Herbicidal ratio of 5% or more and less than 20%)	0 (Herbicidal ratio of 5% or less (almost no effect))	4 (Herbicidal ratio of 70% or more and less than 90%)	4 (Herbicidal ratio of 70% or more and less than 90%)	3 (Herbicidal ratio of 40% or more and less than 70%)
